From patent US20190070165A1, “N-HYDROXYISOQUINOLINEDIONE INHIBITORS OF HBV REPLICATION” (Saint Louis University, priority 2016, published 2019)
Read-outs that look alike come from different tables or passages of the source.

Experiments:
[1] = tested on: HSV-1; test: HSV-1 replication inhibition assay in Vero cells; type: cell-based, herpes simplex virus 1; settings: read-out: HSV-1 suppression (log10 at 5 μM), class symbol
Protocol: Thirty-seven compounds were counter-screened for efficacy against HSV-1 to evaluate specificity of the inhibitors and to help determine if the efficacy against HBV replication may be due to an unsuspected indirect effect on the cells. Vero cells infected with HSV-1 at an MOI of 0.1 were treated with 5 μM of compound for 24 hours. Inhibition was calculated as log 10 suppression of plaque forming units compared with DMSO vehicle control.
Vero cells were maintained DMEM supplemented with 3% newborn calf serum, 3% bovine growth serum, 2 mM L-glutamine, and P/S. Test compounds were applied to the cells in the presence of 0.05% DMSO. The herpes simplex virus 1 (HSV-1) strain used for screening was a de-identified clinical isolate from the Saint Louis University Hospital passaged once in culture.
Compounds and virus were diluted in phosphate buffered saline (PBS) containing 2% newborn calf serum and 2 mM L-glutamine so that the final concentration of compound was 5 μM. The cells were incubated at 37° C. for 1 hour with the virus containing inoculum, then the inoculum was removed and the wells were washed once in PBS. Compound diluted to 5 μM in supplemented DMEM was added and cells were incubated at 37° C. for an additional 23 hours. The plates were then microscopically inspected for cytopathic effect (CPE) or toxicity and then frozen at −80° C. Virus titers for wells with limited CPE compared to DMSO vehicle-treated controls were then determined by plaque assay on Vero cells. Each experiment was repeated at least once.

[2] = tested on: HBV replication; test: HBV replication inhibition assay in HepDES19 cells (strand-preferential q-PCR); type: cell-based, Hepatitis B virus; settings: Hepatitis B virus
Protocol: HBV replication assay. […] Cells were seeded into 6-well plates and incubated in DMEM/F12, 10% fetal bovine serum (FBS), 1% penicillin/streptomycin (P/S) with 1 μg/mL tetracycline. Tetracycline was withdrawn after 24 hours. The test compound was applied to duplicate wells 48 hours later in medium containing a final DMSO concentration of 1%, and medium containing the compound was refreshed daily for the following two days. Cells were harvested and non-encapsidated nucleic acids were digested with micrococcal nuclease (New England Biolabs). HBV DNA was purified from capsids using QIAamp Cador Pathogen Mini Kit (Qiagen) with proteinase K incubation overnight at 37° C. TaqMan PCR was performed for 40 cycles at an annealing temperature of 60° C.
Thirty-nine HID, HPD, flutimide, and related POH compounds (Structures shown in FIG. 3) were screened for their ability to inhibit HBV replication in HepDES19 cells. […] Inhibition was calculated as the amount of plus-polarity DNA relative to the DMSO treated controls.
Briefly, HepDES19 were seeded in 12-well plates at 2×10^5 cells per well in the absence of tetracycline. Test compound was applied to cells 48 hours after removal of tetracycline. […] HBV DNA was purified from capsids using a QIAamp pathogen minikit with proteinase K digestion extended to overnight at 37° C. TaqMan PCR was performed for 40 cycles with an annealing temperature of 60° C.

[3] = tested on: patient-derived RNAseH enzymes; test: Biochemical RNAseH assay with variant patient-derived RNAseH enzymes; set-up: species or system Hepatitis B virus; settings: compounds at their respective IC50 values, four genotype D enzymes
Protocol: HBV has 8 genotypes differing in sequence by 8%. Genetic diversity in the RNAseH domain is about 6%, which is easily high enough to modulate viral sensitivity to RNAseH inhibitors. […] Twelve purified, patient-derived RNAseH enzymes (4 from each genotypes B, C and D) were tested with the compounds at their respective IC50 values in a biochemical RNAseH assay. […] Equivalent results were obtained for all 12 enzymes against compounds #1 and #46. Therefore, HBV's high genetic variation is unlikely to present a substantial barrier to drug development.

[4] = tested on: HBV replication; test: Chou-Talalay synergy analysis with Lamivudine against HBV replication; settings: CI <1.0 indicates synergy
Protocol: Chou-Talaly analysis yields a combination index (CI). CI values <1.0 indicate synergy, CIs of approximately 1.0 indicate additive interactions, and CI values >1.0 indicate antagonism. CI values are calculated at various efficacy levels (EC50, EC75, EC90, and EC95), and a weighted CI value favoring higher efficacy levels is also generated.

[5] = target: T1, HBV RNaseH (Hepatitis B virus genotype D subtype ayw, UniProt P03156); test: Molecular beacon RNaseH assay; settings: for inhibition in the molecular beacon assay: 2.1 μg purified HBV RNaseH; for Inhibition of HBV RNaseH, Molecular Beacon cleavage assay: Table 3, 0 to 500 μM
Target sequence in this assay (P03156 671-832): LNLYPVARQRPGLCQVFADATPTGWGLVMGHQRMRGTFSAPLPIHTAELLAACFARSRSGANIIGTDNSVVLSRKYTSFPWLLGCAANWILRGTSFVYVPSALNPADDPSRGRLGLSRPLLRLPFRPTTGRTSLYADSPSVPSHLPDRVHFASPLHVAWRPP
Protocol: In this assay, a hairpin DNA oligonucleotide labeled with fluorescein on one end and a quencher on the other is held in a linear conformation by annealing to a complementary RNA; cleavage of the RNA causes the DNA to fold into a hairpin, suppressing fluorescence (FIG. 8A).
The substrate is a hairpin DNA oligonucleotide with a 5′ fluorescein reporter and a 3′ black hole quencher annealed to a complementary RNA oligonucleotide. The reaction was initiated by adding 5 mM Mg^++, and fluorescence was monitored at 37° C. with a Synergy 4 96-well plate reader. Inhibition was qualitatively determined as a dose-dependent reduction in the rate of substrate degradation.

[6] = target: T1, HBV RNaseH; settings: for Inhibition of HBV RNaseH, Oligonucleotide directed cleavage assay: Table 3, compounds at 100, 60 and 20 μM, compounds 1-91 and 138-140 previously reported (Cai et al., 2014); for HBV RNaseH: Table 1, qualitative inhibition in biochemical assay
Target sequence in this assay (P03156 671-832): as above

[7] = tested on: HIV replication; settings: literature values (Billamboz et al., 2011b; Suchaud et al., 2014); cited from earlier work
[8] = target: T2, human RNaseH1 (Homo sapiens, UniProt O60930); test: Oligonucleotide-directed RNA cleavage assay, human RNaseH1; type: biochemical; settings: for IC50: Table 1, quantitative values; for Human RNaseH1: Table 1, qualitative inhibition
T2 construct: made in house; host or cells: E. coli
T2 sequence (O60930 1-286): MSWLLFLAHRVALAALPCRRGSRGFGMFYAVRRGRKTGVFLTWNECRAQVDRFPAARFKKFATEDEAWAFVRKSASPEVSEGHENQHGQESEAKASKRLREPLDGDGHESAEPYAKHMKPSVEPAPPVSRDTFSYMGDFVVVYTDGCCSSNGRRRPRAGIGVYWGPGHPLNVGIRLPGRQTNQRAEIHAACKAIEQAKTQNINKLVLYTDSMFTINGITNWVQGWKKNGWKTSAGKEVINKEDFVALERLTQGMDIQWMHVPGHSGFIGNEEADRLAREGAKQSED
Source text: RNaseH expression and purification.
Oligonucleotide-directed RNA cleavage assay.

[9] = Neutral red (NR) cytotoxicity assay; type: cell-based; settings: human, HepDES19 cells, read-out: Toxicity in HepDES19, NR (CC50)
Protocol: (§1) To further evaluate potential cytotoxicity of these hits, the effect of the compounds was determined for the uptake of neutral red (NR) by the lysosomes and lactate dehydrogenase (LDH) release into the supernatant due to cell membrane permeability. […] Overall, the TI values in Table 3 and FIG. 4 indicate that cytotoxicity was not the cause of antiviral efficacy, although it may have contributed to the apparent efficacy for #84, 85, 90, and 91, which all have TI values below 5.

[10] = MTS cytotoxicity assay (CellTiter 96); settings: human
Protocol: (§2) HepDES19 cells were seeded at 1×10^4 cells per well in a 96 well plate in the absence of tetracycline. The test compounds were applied in triplicate to the cells 48 hours later and the cells were incubated for 72 hours. Cell viability was measured using the CellTiter 96 Aqueous Non-Radioactive Cell Proliferation Assay (Promega). [3-(4,5-dimethylthiazol-2-yl)-5-(3-carboxymethoxyphenyl)-2-(4-sulfophenyl)-2H-tetrazolium, inner salt] (MTS) and phenazine methosulfate (PMS) solution at 2 mg/mL MTS and 0.043 mg/mL PMS were added to the medium, the cells were incubated for two hours at 37° C., and absorbance was measured at 490 nm. […] Neutral red was added to the media at a final concentration of 40 μg/mL. Cells were washed with PBS and incubated with neutral red medium for two hours at 37° C. The neutral red medium was removed and the cells were washed with PBS. […] Lactate dehydrogenase (LDH) release was measured using the LDH-cytotoxicity colorimetric assay kit (BioVision). Cells were lysed with 1% Triton-X to provide the high control and DMSO vehicle treatment was the low control. Supernatants were collected and transferred to a fresh 96 well plate, and LDH reaction mixture containing the catalyst and dye solution was added. The reaction was incubated for 15-20 minutes at room temperature in a dark box and absorbance was measured at 490 nm. Percent cytotoxicity was calculated as [(test sample−low control)/([…])]×100.

[11] = tested on: HepDES19 cells; test: MTS cytotoxicity assay (CellTiter 96); settings: CC50 by MTS assay over EC50
Protocol: as §2

[12] = MTT cytotoxicity assay; type: cell-based; settings: human; Table 2, HepDES19 cells
Protocol: MTT cytotoxicity assays. 1.0×10^4 HepDES19 cells per well were seeded in 96-well plates and incubated in DMEM with 10% FBS plus 1% P/S, 1% non-essential amino acids, and 1% glutamine. Compounds were diluted in medium to the indicated concentrations plus 1% DMSO and added to cells 24 hours after plating, with each concentration tested in triplicate. Medium containing the compound was refreshed daily for the next two days. Thiazolyl blue tetrazolium bromide (MTT, Sigma-Aldrich) was added to 0.25 mg/mL, the cultures were incubated for 60 minutes, metabolites were solubilized in acidic isopropanol, and absorbance was read at 570 nm.

[13] = Lactate dehydrogenase (LDH) release cytotoxicity assay; type: cell-based; settings: human, HepDES19 cells, read-out: Toxicity in HepDES19, LDH (CC50)
Protocol: as §1

[14] = target: T1, HBV RNaseH; test: Detection of capsid-associated RNA:DNA heteroduplexes by Southern analysis; type: cell-based; set-up: expressed in transfected cells; host or cells: HepDES19 (HepG2 with a stably transfected HBV genotype D genome); settings: HepDES19 cells, seven days; #89 at 4×EC50 (10.4 μM), #138 at 30 μM
Protocol: RNA:DNA heteroduplexes migrate as double-stranded products, but degradation of the RNA strand with exogenous RNase causes the DNAs to migrate as single-stranded species. To test for accumulation of RNA:DNA heteroduplexes, HepDES19 cells replicating HBV were treated with 4×EC50 (10.4 μM) of compound #89 and 30 μM compound #138 (negative control). HBV cores were harvested after seven days of compound treatment. Capsid-associated nucleic acids were purified and split into two pools; one pool was treated with RNaseA and the other pool was mock treated.
HepDES19 cells were plated in 100 mm dishes without tetracycline and incubated for 72 hours in the absence of tetracycline before addition of compound #89 at 4×EC50 (10.4 μM) and the negative control compound #138 at 30 μM; compound-containing media was replaced every three days. HBV nucleic acids were purified seven days after compound addition. HBV core particles were isolated by sedimentation through a sucrose cushion as described (Tavis et al., 1998). Cores were treated overnight with proteinase K (0.5 mg/mL) and 1.5% SDS at 37° C. Nucleic acids were purified by phenol-chloroform extraction and ethanol precipitation. The nucleic acids were split into two pools. One pool was treated with RNaseA (1.5 μg/μL) at 37° C. for 30 minutes and the other was mock-treated. […]
Target sequence in this assay (P03156 whole entry): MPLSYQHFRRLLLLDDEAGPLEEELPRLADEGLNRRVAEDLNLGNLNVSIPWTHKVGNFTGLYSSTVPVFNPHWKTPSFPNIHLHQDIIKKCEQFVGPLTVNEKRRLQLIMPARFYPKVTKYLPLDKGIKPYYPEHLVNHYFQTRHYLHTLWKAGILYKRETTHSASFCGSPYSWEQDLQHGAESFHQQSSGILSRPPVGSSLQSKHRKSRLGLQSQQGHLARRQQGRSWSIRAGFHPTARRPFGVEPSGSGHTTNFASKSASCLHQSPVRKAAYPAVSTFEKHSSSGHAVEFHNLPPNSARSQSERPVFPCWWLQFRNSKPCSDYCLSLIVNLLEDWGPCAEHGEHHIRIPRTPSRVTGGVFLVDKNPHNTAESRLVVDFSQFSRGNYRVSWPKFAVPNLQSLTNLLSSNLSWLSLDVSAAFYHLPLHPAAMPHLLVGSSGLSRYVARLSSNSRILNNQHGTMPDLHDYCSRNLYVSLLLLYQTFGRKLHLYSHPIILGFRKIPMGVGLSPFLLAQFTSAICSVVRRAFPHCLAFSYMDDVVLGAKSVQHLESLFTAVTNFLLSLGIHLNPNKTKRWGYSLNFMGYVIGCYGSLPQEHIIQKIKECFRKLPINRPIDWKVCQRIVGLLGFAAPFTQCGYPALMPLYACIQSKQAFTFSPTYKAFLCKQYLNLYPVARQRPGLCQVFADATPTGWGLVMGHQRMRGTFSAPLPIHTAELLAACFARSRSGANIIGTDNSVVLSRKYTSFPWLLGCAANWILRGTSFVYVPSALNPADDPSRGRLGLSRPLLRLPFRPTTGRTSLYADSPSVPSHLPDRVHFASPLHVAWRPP

[15] = Human alphaherpesvirus 1, 24 h, 5 μM, Vero cells
[16] = HepDES19, read-out: HBV replication inhibition (EC50, μm)
[17] = HepDES19 cells, read-out: EC50, HBV replication
[18] = Table 2, HepDES19 cells, read-out: EC50

With O=C1Cc2ccccc2C(=O)N1O [Compound 1, 2-hydroxyisoquinoline-1,3(2H,4H)-dione] the log reduction at 5 µM [1, 15] was under 1, the EC50 [2, 16] was 4.2 ± 1.4 µM and the “inhibition of variant genotype D RNAseH enzymes” value [3] was “about 50%”. The “weighted combination index (CI) with Lamivudine” value [4] was 0.70±0.1, the “inhibition in the molecular beacon assay” value [5] was “inhibited” and the “Inhibition of HBV RNaseH, Molecular Beacon cleavage assay” value [5] was “+ (Dose-dependent inhibition at ≤500 μM)”. The “Inhibition of HBV RNaseH, Oligonucleotide directed cleavage assay” value [6] was “+ (Dose-dependent inhibition at ≤100 μM)”.
For CC(C)c1ccc(O)c(=O)c(O)c1 [Compound 46, β-thujaplicinol, reference compound], the “inhibition of variant genotype D RNAseH enzymes” value [3] was “about 50%” and the “weighted combination index (CI) with Lamivudine” value [4] was 0.44±0.3.
In the case of COC(=O)C1C(=O)N(O)C(=O)c2ccccc21 (centres unmarked) [Compound 81], the log reduction at 5 µM ([1]; Human alphaherpesvirus 1, Vero, 24 h) is listed as under 1, the EC50 [7] is listed as 13.4 µM and the EC50 [2, 16] is listed as 4.4 ± 3 µM. It also gave an EC50 [2, 17] of 4.4 µM, an EC50 [2, 18] of 4 µM and an IC50 [8] of 4.9 µM. For the same molecule, the “inhibition in the molecular beacon assay” value [5] was “inhibited”, the “Inhibition of HBV RNaseH, Molecular Beacon cleavage assay” value [5] was “+ (Dose-dependent inhibition at ≤500 μM)” and the “HBV RNaseH” value [6] was “+/−”. The “Inhibition of HBV RNaseH, Oligonucleotide directed cleavage assay” value [6] was “− (No inhibition detected at 100 μM)” and the “inhibition of RNA cleavage by HBV RNaseH” value ([6]; compounds at 100, 60 and 20 μM) was “negative”.
For O=C(Nc1ccc2c(c1)C(=O)N(O)C(=O)C2C(=O)NCc1ccc(F)cc1)c1ccccc1 (centres unmarked) [Compound 86], the log reduction at 5 µM [1, 15] is given as under 1, the EC50 [7] is given as over 21 µM and the CC50 at 72 h [9] is given as 52 ± 11 µM. The EC50 [2, 16] was 1.4 ± 0.3 µM, the EC50 [2, 17] was 1.4 µM and the EC50 [2, 18] was 1.4 µM. For the same molecule, the IC50 [8] was 4 µM, the “Inhibition of HBV RNaseH, Molecular Beacon cleavage assay” value [5] was “− (No inhibition detected at 500 μM)” and the CC50 at 72 h [10] was 99 ± 2 µM. The “TI (therapeutic index, CC50(MTS)/EC50)” value [11] was 71, the CC50 [12] was over 100 µM and the CC50 at 72 h [13] was over 100 µM. The “HBV RNaseH” value [6] was “+/−” and the “Inhibition of HBV RNaseH, Oligonucleotide directed cleavage assay” value [6] was “− (No inhibition detected at 100 μM)”.
Molecule COc1ccc2c(c1)C(=O)N(O)C(=O)C2C(=O)NCc1ccc(F)cc1 (centres unmarked) [Compound 88] has a log reduction at 5 µM [1, 15] of under 1, a CC50 at 72 h [9] of 26 ± 2 µM and an EC50 [2, 16] of 2.5 ± 0.5 µM. The “Human RNaseH1” value [8] was “+++ (detectable inhibition at 10 μM)”, the “Inhibition of HBV RNaseH, Molecular Beacon cleavage assay” value [5] was “− (No inhibition detected at 500 μM)” and the CC50 at 72 h [10] was 40 ± 6 µM. For the same molecule, the “TI (therapeutic index, CC50(MTS)/EC50)” value [11] was 16, the CC50 [12] was 40 µM and the CC50 at 72 h [13] was 57 ± 6 µM. The “Inhibition of HBV RNaseH, Oligonucleotide directed cleavage assay” value [6] was “− (No inhibition detected at 100 μM)”.
With COc1ccc(CNC(=O)C2C(=O)N(O)C(=O)c3cc([N+](=O)[O-])ccc32)cc1 (centres unmarked) [Compound 89] the log reduction at 5 µM [1, 15] was under 1, the EC50 [2, 16] was 2.6 ± 0.8 µM and the “accumulation of RNA:DNA heteroduplexes” value [14] was “caused RNA:DNA heteroduplexes to accumulate”. The “Human RNaseH1” value [8] was “++ (detectable inhibition at 20 μM)”, the “Inhibition of HBV RNaseH, Molecular Beacon cleavage assay” value [5] was “− (No inhibition detected at 500 μM)” and the “Inhibition of HBV RNaseH, Oligonucleotide directed cleavage assay” value [6] was “− (No inhibition detected at 100 μM)”.
